EC50 data for 20 molecules are collected here from patent US10344019B2 (priority 2010, dated 2019).

Test in all cases: microbe, parasite or virus in culture
Holding throughout (assay type): cell-based

The subject of experiment [1] is HCV 1a RLuc cells (dicistronic genotype 1a H77 replicon, RLuc reporter). Conditions: Hepatitis C virus, read-out: 1a. The gist of the method: (§1)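 Replicon cells stably carrying the listed RLuc-encoding dicistronic replicons were seeded and treated with DMSO serial dilutions of compound (10 mM stocks) diluted into culture medium. After 72 h, cells were lysed and Renilla luciferase activity measured. EC50 was derived by non-linear regression.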

The subject of experiment [2] is HCV 1b RLuc cells (dicistronic genotype 1b Con1 replicon, RLuc reporter). Conditions: Hepatitis C virus, read-out: 1b (nM). The gist of the method: as §1
In experiment [3] the test system is HCV 2a JFH-1 Rluc cells (dicistronic genotype 2a JFH-1 replicon, RLuc reporter). The conditions noted are these: Hepatitis C virus, genotype 2a JFH-1 replicon, read-out: 2a JFH. The essentials: as §1
For orientation: In antiviral work, replicon cells carry a viral genome segment that copies itself.

For experiment [4], the system named is HCV 3a RLuc cells (NS5A chimeric genotype 1b Con1 replicon with consensus genotype 3a NS5A gene). Conditions: Hepatitis C virus. The gist of the method:
as §1

The test system of experiment [5] is HCV 4a Rluc cells (NS5A chimeric genotype 1b Con1 replicon with genotype 4a NS5A gene). Conditions: Hepatitis C virus, read-out: 4a. The essentials: as §1
Where [6] appears, read: read-out: 3a, genotype 3a replicon.
Setting [7] is: genotype 1a H77 replicon, RLuc reporter.
[8] abbreviates: read-out: 3a, genotype 3a NS5A chimeric 1b Con1 replicon.
The mark [9] stands for this setting: 72 h, Table 2, genotype 1a H77 replicon, 72 hours.
Where [10] appears, read: read-out: 3a, Table 2, genotype 3a NS5A chimeric replicon.
[11] abbreviates: 72 h, Table 1, genotype 1a H77 replicon, 72 hours.
[12] abbreviates: read-out: 3a, Table 1, genotype 3a NS5A chimeric replicon.

Like-named read-outs stand apart in the source and are kept apart here.

Turning to `COC(=O)N[C@H](C(=O)N1[C@@H]2CC[C@@H](C2)[C@H]1c1ncc(-c2ccc(-c3ccc4c(ccc5nc([C@@H]6CCCN6C(=O)[C@@H](NC(=O)OC)C6CCOCC6)[nH]c54)c3)cc2F)[nH]1)C(C)C` [Example 302], the EC50 is 0.001 to 0.999 nM in experiment [1] (genotype 1a replicon); 0.021 nM in experiment [2]; 0.001 to 0.999 nM in experiment [3]; 0.001 to 0.99 nM in experiment [4] (setting [6]); 0.001 to 0.99 nM in experiment [5].
Take `COC(=O)N[C@H](C(=O)N1CCC[C@H]1c1nc(-c2ccc3c(c2)C(F)(F)c2cc(-c4ccc5nc([C@@H]6CCCN6C(=O)[C@@H](NC(=O)OC)C6CCOCC6)[nH]c5c4)ccc2-3)c[nH]1)C(C)C` [Example 220]: the EC50 is 0.001 to 0.999 nM in experiment [1] (setting [7]); 0.011 nM in experiment [2]; 0.001 to 0.999 nM in experiment [3] (RLuc reporter); 1 to 4.99 nM in experiment [4] (setting [8]); 0.001 to 0.99 nM in experiment [5].
With `COC(=O)N[C@H](C(=O)N1[C@@H]2C[C@@H]2C[C@H]1c1nc2ccc3cc(-c4ccc(-c5cnc([C@@H]6[C@H]7CC[C@H](C7)N6C(=O)[C@H](NC(=O)OC)c6ccccc6)[nH]5)cc4)ccc3c2[nH]1)C(C)C` [Example 337], the EC50 is 0.001 to 0.999 nM in experiment [1] (genotype 1a replicon); 0.01 nM in experiment [2]; 0.001 to 0.999 nM in experiment [3]; 0.001 to 0.99 nM in experiment [4] (setting [6]); 0.001 to 0.99 nM in experiment [5].
In the case of `COC(=O)N[C@H](C(=O)N1CCC[C@H]1c1nc2ccc(-c3ccc4c(c3)C(F)(F)c3cc(-c5c[nH]c([C@@H]6CCCN6C(=O)[C@H](NC(=O)OC)c6ccccc6)n5)ccc3-4)cc2[nH]1)C1CCOCC1` [Example 218], the EC50 in experiment [1] (setting [7]) is 0.001 to 0.999 nM; in experiment [2], 0.01 nM; in experiment [3] (RLuc reporter), 0.001 to 0.999 nM; in experiment [4] (setting [8]), 0.001 to 0.99 nM; in experiment [5] it was 0.001 to 0.99 nM.
For `COC(=O)N[C@H](C(=O)N1CCC[C@H]1c1nc2ccc3cc(-c4ccc5c(c4)CCc4nc([C@@H]6[C@H]7CC[C@H](C7)N6C(=O)[C@@H](NC(=O)OC)[C@@H](C)OC)[nH]c4-5)ccc3c2[nH]1)C(C)C` [Example 88], the EC50 in experiment [1] (setting [9]) was 0.001 to 0.999 nM; in experiment [2] (72 h), 0.019 nM; in experiment [3] (72 h, Table 2, 72 hours), 0.001 to 0.999 nM; in experiment [4] (setting [10]), 0.001 to 0.99 nM; in experiment [5] it was 0.001 to 0.99 nM.
On to `COC(=O)N[C@H](C(=O)N1CCC[C@H]1c1ncc(-c2cc3c4c(c2)OCc2cc(-c5cnc([C@@H]6CCCN6C(=O)[C@@H](NC(=O)OC)[C@@H](C)OC)[nH]5)cc(c2-4)OC3)[nH]1)C(C)C` [Example 313], for which the EC50 in experiment [1] (genotype 1a replicon) was 0.001 to 0.999 nM; in experiment [2], 0.079 nM; in experiment [3], 0.001 to 0.999 nM; in experiment [4] (setting [6]), 0.001 to 0.99 nM; in experiment [5], 0.001 to 0.99 nM.
Regarding `COC(=O)N[C@H](C(=O)N1CCC[C@H]1c1nc2ccc(-c3ccc4c(c3)CCc3cc(-c5cnc([C@@H]6CCCN6C(=O)C(c6ccccc6)N(C)C)[nH]5)ccc3-4)cc2[nH]1)C(C)C` (stereo partly shown) [Example 181], the EC50 in experiment [1] (setting [7]) is 0.001 to 0.999 nM; in experiment [2], 0.01 nM; in experiment [3] (RLuc reporter), 0.001 to 0.999 nM; in experiment [4] (setting [8]), 0.001 to 0.99 nM; in experiment [5], 0.001 to 0.99 nM.
Regarding `COC(=O)NC(C(=O)N1CCC[C@H]1c1ncc(-c2ccc3cc(-c4ccc(-c5cnc([C@@H]6CC(C)(Br)CN6C(=O)[C@@H](NC(=O)OC)C6CCOCC6)[nH]5)cc4)ccc3c2)[nH]1)c1ccccc1` (stereo partly shown) [Example 205], the EC50 is 0.001 to 0.999 nM in experiment [1] (setting [7]); 0.016 nM in experiment [2]; 0.001 to 0.999 nM in experiment [3] (RLuc reporter); 1 to 4.99 nM in experiment [4] (setting [8]); 0.001 to 0.99 nM in experiment [5].
Consider `COC(=O)N[C@H](C(=O)N1CCC[C@H]1c1ncc(-c2ccc3c(c2)C(F)(F)c2cc(-c4ccc5nc([C@@H]6[C@H]7CC[C@H](C7)N6C(=O)[C@H](NC(=O)OC)c6ccccc6)[nH]c5c4)ccc2-3)[nH]1)C(C)C` [Example 40], for which the EC50 was 0.001 to 0.999 nM in experiment [1] (setting [9]); 0.005 nM in experiment [2] (72 h); 0.001 to 0.999 nM in experiment [3] (72 h, Table 2, 72 hours); 1 to 4.99 nM in experiment [4] (setting [10]); 0.001 to 0.99 nM in experiment [5].
Consider `COC(=O)N[C@H](C(=O)N1CC2(C[C@@H]1c1nc(-c3ccc4c(c3)C(F)(F)c3cc(-c5ccc6nc([C@@H]7CCCN7C(=O)[C@H](NC(=O)OC)c7ccccc7)[nH]c6c5)ccc3-4)c[nH]1)OCCO2)C(C)C` [Example 46], for which the EC50 in experiment [1] (setting [9]) is 0.001 to 0.999 nM; in experiment [2] (72 h), 0.007 nM; in experiment [3] (72 h, Table 2, 72 hours), 0.001 to 0.999 nM; in experiment [4] (setting [10]), 1 to 4.99 nM; in experiment [5], 0.001 to 0.99 nM.
Turning to `COC(=O)N[C@H](C(=O)N1CC2(C[C@H]1c1ncc(-c3ccc4cc(-c5ccc(-c6cnc([C@@H]7CCCN7C(=O)[C@H](NC(=O)OC)c7ccccc7)[nH]6)cc5)ccc4c3)[nH]1)OCCO2)C1CCOCC1` [Example 44], the EC50 in experiment [1] (setting [9]) is 0.001 to 0.999 nM; in experiment [2] (72 h), 0.032 nM; in experiment [3] (72 h, Table 2, 72 hours) it was 0.001 to 0.999 nM; in experiment [4] (setting [10]) it was 1 to 4.99 nM; in experiment [5], 0.001 to 0.99 nM.
Regarding `COC(=O)N[C@H](C(=O)N1CCC[C@H]1c1ncc(-c2cc3c4c(c2)CCc2cc(-c5cnc([C@@H]6CCCN6C(=O)[C@@H](NC(=O)OC)C6CCOCC6)[nH]5)cc(c2-4)CC3)[nH]1)C(C)C` [Example 23], the EC50 in experiment [1] (setting [11]) is 0.001 to 0.999 nM; in experiment [2] (72 h) it was 0.067 nM; in experiment [3] (72 h, Table 1, 72 hours), 0.001 to 0.999 nM; in experiment [4] (setting [12]), 0.001 to 0.99 nM; in experiment [5], 0.001 to 0.99 nM.
Consider `COC(=O)N[C@H](C(=O)N1CCCC1c1ncc(-c2cc3c4c(c2)OCc2cc(-c5cnc([C@@H]6CCCN6C(=O)[C@@H](NC(=O)OC)C6CCC6)[nH]5)cc(c2-4)OC3)[nH]1)C1CCC1` (stereo in doubt) [Example 376], for which the EC50 is 0.001 to 0.999 nM in experiment [1] (genotype 1a replicon); 0.02 nM in experiment [2]; 0.001 to 0.999 nM in experiment [3]; 0.001 to 0.99 nM in experiment [4] (setting [6]); 0.001 to 0.99 nM in experiment [5].
For `COC(=O)N[C@H](C(=O)N1CCC[C@H]1c1nc(-c2ccc3cc(-c4ccc(-c5cnc([C@@H]6CCCN6C(=O)[C@H](NC(=O)OC)c6ccccc6)[nH]5)cc4)sc3c2)c[nH]1)C(C)C` [Example 253], the EC50 was 0.001 to 0.999 nM in experiment [1] (setting [7]); 0.005 nM in experiment [2]; 0.001 to 0.999 nM in experiment [3] (RLuc reporter); 0.001 to 0.99 nM in experiment [4] (setting [8]); 0.001 to 0.99 nM in experiment [5].
Consider `COC(=O)N[C@H](C(=O)N1CCC[C@H]1c1nc2ccc3cc(C#Cc4ccc(-c5cnc([C@@H]6CCCN6C(=O)[C@H](NC(=O)OC)c6ccccc6)[nH]5)cc4)ccc3c2[nH]1)C1CCOCC1` [Example 208], for which the EC50 in experiment [1] (setting [7]) is 0.001 to 0.999 nM; in experiment [2] it was 0.009 nM; in experiment [3] (RLuc reporter) it was 0.001 to 0.999 nM; in experiment [4] (setting [8]) it was 0.001 to 0.99 nM; in experiment [5], 0.001 to 0.99 nM.
Turning to `COC(=O)N[C@H](C(=O)N1CCC[C@H]1c1ncc(-c2ccc3c(c2)COc2c-3ccc3cc(-c4cnc([C@@H]5CCCN5C(=O)[C@H](NC(=O)OC)c5ccccc5)[nH]4)ccc23)[nH]1)[C@@H](C)OC` [Example 14], the EC50 in experiment [1] (setting [11]) was 0.001 to 0.999 nM; in experiment [2] (72 h), 0.01 nM; in experiment [3] (72 h, Table 1, 72 hours) it was 0.001 to 0.999 nM; in experiment [4] (setting [12]) it was 0.001 to 0.99 nM; in experiment [5], 0.001 to 0.99 nM.
Take `COC(=O)N[C@H](C(=O)N1CCC[C@H]1c1nc2c([nH]1)-c1ccc(-c3ccc4cc(-c5cnc([C@@H]6CCCN6C(=O)[C@H](NC(=O)CN6CCOCC6)c6ccccc6)[nH]5)ccc4c3)cc1CC2)C(C)C` [Example 245]: the EC50 in experiment [1] (setting [7]) was 0.001 to 0.999 nM; in experiment [2], 0.017 nM; in experiment [3] (RLuc reporter) it was 0.001 to 0.999 nM; in experiment [4] (setting [8]) it was 0.001 to 0.99 nM; in experiment [5] it was 0.001 to 0.99 nM.
Regarding `COC(=O)N[C@H](C(=O)N1CCC[C@H]1c1ncc(-c2ccc3cc(-c4ccc(-c5cnc([C@@H]6CCCN6C(=O)[C@@H](N)C6CCSCC6)[nH]5)cc4)ccc3c2)[nH]1)C(C)C` [Example 277], the EC50 in experiment [1] (setting [7]) is 1 to 44 nM; in experiment [2], 1.06 nM; in experiment [3] (RLuc reporter), more than 44 nM; in experiment [4] (setting [8]), more than 5 nM; in experiment [5], 1 to 4.99 nM.
As to `COC(=O)N[C@H](C(=O)N1CCC[C@H]1c1ncc(-c2ccc3c(c2)OCc2cc(-c4ccc5nc([C@@H]6[C@H]7CC[C@H](C7)N6C(=O)[C@@H](c6ccccc6)N(N)C(=O)OC)[nH]c5c4)ccc2-3)[nH]1)C(C)C` [Example 74], the EC50 in experiment [1] (setting [9]) is 0.001 to 0.999 nM; in experiment [2] (72 h), 0.006 nM; in experiment [3] (72 h, Table 2, 72 hours) it was 0.001 to 0.999 nM; in experiment [4] (setting [10]) it was 0.001 to 0.99 nM; in experiment [5] it was 0.001 to 0.99 nM.
On to `COC(=O)N[C@H](C(=O)N1CCC[C@H]1c1ncc(-c2ccc(-c3ccc4c(ccc5nc([C@@H]6[C@H]7CC[C@H](C7)N6C(=O)[C@@H](NC(=O)OC)C(C)C)[nH]c54)c3)cc2Cl)[nH]1)C(C)C` [Example 371], for which the EC50 in experiment [1] (genotype 1a replicon) is 0.001 to 0.999 nM; in experiment [2], 0.007 nM; in experiment [3], 0.001 to 0.999 nM; in experiment [4] (setting [6]), more than 5 nM; in experiment [5], 0.001 to 0.99 nM.
